# Measured values reported in BindingDB's records for PubMed 35440138 (University of Strathclyde, 2022).
# Tests used:
# [1] = Inhibition of LPA-mediated ATX activation in human BJeH cells assessed as ERK phosphorylation level incubated for 30 mins by Western blot analysis
# [2] = Inhibition of LPA-mediated ATX activation in human BJeH cells assessed as AKT phosphorylation level incubated for 30 mins by Western blot analysis
structure (smiles),measurement,setting,value
C[C@H](CCC(=O)N1CCC(Oc2ccc([B-](F)(F)F)cc2)CC1)[C@H]1CC[C@H]2C3[C@@H](O)C[C@@H]4C[C@H](O)CC[C@]4(C)[C@H]3CC[C@]12C (some centres not stated),EC50,[1],100 nM
same,EC50,[2],100 nM
